Key:
[1] = tested on: chronic mild stress-induced depression model mice; test: Tail suspension test, suppressive effects of depression symptoms accompanying mild stress loads; format: in vivo; details: normal control 73.16±9.20, stress-loaded control 157.01±11.97
Description: (§1) Female ddY mice of seven weeks age (n=8 to 12) were subjected to the following procedures: (A) The mice were subjected to forced swimming for 15 minutes, and then to normal breeding for two days. (B) The mice were subjected to breeding in an inclined cage for two days, and then to normal breeding for one day. (C) The mice were subjected to breeding for one day in a cage of which floor mat was made wet and then to normal breeding for one day. (D) The mice were subjected to breeding for one day with a cage rotating at a rate of 180 rotations/minute, and then to normal breeding for one day. Further, after one cycle of (A) to (D) was carried out, (B) to (D) were repeated for two cycles. As such, stress was applied over three weeks in total to prepare chronic mild stress-induced depression model mice. […]
The compounds of the present invention were administered as a test drug to the chronic mild stress-induced depression model mice of Test Example 3(1) mentioned above, and the model mice were then subjected to tail suspension test to evaluate suppressive effects of depression symptoms. […] The observations were made for 6 minutes, and the length of the immobility time, serving as an index of depression symptoms, was measured. […]

[2] = tested on: rats with paclitaxel-induced peripheral nerve disorder; test: Rat peripheral nerve disorder induced by paclitaxel, von Frey test; format: in vivo; details: ip, test drug intraperitoneally, single dose, higher of values 1 and 5 hours after administration, mechanical stimulus of right hind limb, normal threshold 15, read-out: Recovery Rate of 50% Reaction Threshold Value
Description: The effects of the compounds of the present invention were evaluated for a peripheral nerve disorder which is a side effect induced by the administration of an anti-cancer agent paclitaxel, such as hyperesthesia including allodynia induced by mechanical stimuli, which is a severe pain induced by such tactile stimuli which usually cause no pains. The compound of the present invention was intraperitoneally administered to rats as a test drug to conduct a von Frey test.
Male SD rats of six weeks age (six rats per group) were used as experimental animals, and paclitaxel (2 mg/kg) was intraperitoneally administered every other day for four times in total to prepare rats with paclitaxel-induced peripheral nerve disorder. During the period of 18 to 25 days or during the period of 20 to 27 days after the initiation of paclitaxel administration, the test drug was intraperitoneally administered in a single dose of […], and the following von Frey test was conducted.
The rats of the above (1) were placed in a transparent acrylic cage with a wire-meshed floor and habituated for about three minutes, and the 50% reaction threshold values to the mechanical stimulus of right hind limb were measured before administration of the test drug and after 1 and 5 hours from the initiation of the administration.
The measurement was conducted using von Frey filaments (manufactured by North Coast Medical Inc.) in accordance with the methods of Chaplan, et al. (Journal of Neuroscience Methods, 53(1), 55-63, 1994) and Dixon, et al. (Annual Review of Pharmacology and Toxicology, 20, 441-462, 1980). […] The case where the rat escaped at the instance of removing the filament was also called positive. When the positive reaction was found, stimulus was applied similarly with a filament of one rank weaker, and in the absence of the reaction, stimulus was similarly applied with a filament of one rank stronger, and a point where the reaction changed from negative to positive or from positive to negative was called the first two reactions. Subsequently, stimuli were applied for continuously four times by the same up-down method. A 50% reaction threshold value to the mechanical stimulus was measured using the reaction to the six stimuli in total and then (mean value)±(standard error) for each group was calculated. Incidentally, when stimulus reached to a load of 15.0 g without positive reaction, or when positive reaction continued to a load of 0.4 g, 15.0 g or 0.25 g was adopted as each of 50% reaction threshold values. With regard to the higher 50% reaction threshold value between the 50% threshold values after 1 hour and 5 hours from administration of a test drug, a recovery rate (%) of the 50% reaction threshold value was calculated by the following expression in which 15 was taken as a normal threshold value.
Recovery rate (%) of 50% reaction threshold value=[(50% reaction threshold value after 1 hour or 5 hours from administration of test drug)−(50% reaction threshold value before administration of test drug)]/[(Normal threshold value)−(50% reaction threshold value before administration of test drug)]×100

[3] = tested on: MAP kinase (ERK1/2); test: Activation (phosphorylation) of MAP kinase under mild stress loads, hippocampus of chronic mild stress-induced depression model mice; format: in vivo; details: normal control 1.26±0.11, stress-loaded control 0.56±0.04
Description: As to the compounds of the present invention, the activation level of the MAP kinase (ERK1/2) was measured using chronic mild stress-induced depression model mice in the following manner. • (1) Preparation of Chronic Mild Stress-Induced Depression Model Mice and Administration of Test Drug
as §1
Each of the MAP kinase (MAPK) and the phosphorylated MAP kinase (pMAPK) was subjected to immunoblot analysis, and 2 μg or 5 μg each of tissue-extracted proteins was subjected to electrophoresis. […] The staining intensity of each band was quantified, and a ratio of pMAPK to MAPK was obtained (n=4 to 7). […]

[4] = tested on: chronic mild stress-induced depression model mice; test: Light-dark test, suppressive effects of anxiety symptoms accompanying mild stress loads; format: in vivo; details: normal control 110.74±5.29, stress-loaded control 74.72±4.09
Description: as §1, with “cycles.” for “cycles. As such, stress was applied over three weeks in total to prepare chronic mild stress-induced depression model mice.”
The compounds of the present invention were administered as a test drug to the chronic mild stress-induced depression model mice of Test Example 3(1) mentioned above, and the model mice were then subjected to light-dark test to evaluate suppressive effects of anxiety symptoms. Specifically, a wooden rectangular apparatus composed of a light chamber and a dark chamber having a height of 50 cm, a length of 50 cm, a width of 25 cm was used, a mouse was placed in a dark chamber and allowed to freely search, and then the number of times invading into a light chamber, and the time staying in the light chamber were recorded for 5 minutes. […]

[5] = tested on: transcription factor CREB; test: Activation (phosphorylation) of CREB under mild stress loads, chronic mild stress-induced depression model mice; format: in vivo; details: normal control 0.95±0.09, stress-loaded control 0.50±0.07
[6] = 500 μg/kg orally once every day for three weeks
[7] = 1,000 μg/kg orally once every day for three weeks

## CCCCCCC/C=C/C(=O)N1CCC(N(C)C)CC1 [Compound 12, 1-((E)-2-decenoyl)-4-dimethylaminopiperidine]
[1]; 6 minutes, 500 μg/kg
  immobility time: 69.26 ± 16.41 s
[2]
  change in vivo at 0.3 mg/kg: 49.7%
[3]; [6]
  ratio of pMAPK to MAPK: 1.09±0.04
[4]; 5 minutes, 500 μg/kg
  staying time in the light chamber: 108.70 ± 12.06 s
[5]; [6]
  ratio of pCREB to CREB: 1.08±0.14

## CCCCCCC/C=C/C(=O)N1CCC(C(=O)O)CC1 [Compound 10, 1-((E)-2-Decenoyl)piperidine-4-carboxylic acid]
[1]; 6 minutes, 1,000 μg/kg
  immobility time: 96.03 ± 25.24 s
[2]
  change in vivo at 0.3 mg/kg: 44.6%
[3]; [7]
  ratio of pMAPK to MAPK: 1.00±0.04
[4]; 5 minutes, 1,000 μg/kg
  staying time in the light chamber: 107.05 ± 8.29 s
[5]; [7]
  ratio of pCREB to CREB: 0.94±0.10
other
  melting point: 88 to 89 °C
